Test results from PubChem BioAssay (NCI).
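48-hour exposure; five concentrations; linearly interpolated endpoints. The concentration for full growth arrest is given as TGI.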

Assays:
Assay in all cases: NCI anticancer screen, dose series, 48 h
SNB-19 CNS = tested on: SNB-19 CNS
DU-145 prostate = tested on: DU-145 prostate
MOLT-4 leukemia = tested on: MOLT-4 leukemia
SNB-75 CNS = tested on: SNB-75 CNS
ACHN renal = tested on: ACHN renal
OVCAR-3 ovarian = tested on: OVCAR-3 ovarian
NCI/ADR-RES ovarian = tested on: NCI/ADR-RES ovarian
SF-268 CNS = tested on: SF-268 CNS
NCI-H226 lung = tested on: NCI-H226 lung
UO-31 renal = tested on: UO-31 renal
SK-MEL-2 melanoma = tested on: SK-MEL-2 melanoma
UACC-62 melanoma = tested on: UACC-62 melanoma
KM12 colon = tested on: KM12 colon
SW-620 colon = tested on: SW-620 colon
HOP-62 NSCLC = tested on: HOP-62 NSCLC
HT29 colon = tested on: HT29 colon
NCI-H522 lung = tested on: NCI-H522 lung
MCF7 breast = tested on: MCF7 breast
EKVX NSCLC = tested on: EKVX NSCLC
K-562 leukemia = tested on: K-562 leukemia
U251 CNS = tested on: U251 CNS
RXF 393 renal = tested on: RXF 393 renal
HCC-2998 colon = tested on: HCC-2998 colon
SK-OV-3 ovarian = tested on: SK-OV-3 ovarian
COLO 205 colon = tested on: COLO 205 colon
SR leukemia = tested on: SR leukemia
A498 renal = tested on: A498 renal
LOX IMVI melanoma = tested on: LOX IMVI melanoma
HS 578T breast = tested on: HS 578T breast
MDA-MB-231 breast = tested on: MDA-MB-231 breast
OVCAR-8 ovarian = tested on: OVCAR-8 ovarian
786-0 renal = tested on: 786-0 renal
SN12C renal = tested on: SN12C renal
HCT-116 colon = tested on: HCT-116 colon
OVCAR-4 ovarian = tested on: OVCAR-4 ovarian
SK-MEL-5 melanoma = tested on: SK-MEL-5 melanoma
HL-60(TB) leukemia = tested on: HL-60(TB) leukemia
MDA-N = tested on: MDA-N
SF-295 CNS = tested on: SF-295 CNS
MALME-3M melanoma = tested on: MALME-3M melanoma
OVCAR-5 ovarian = tested on: OVCAR-5 ovarian
CCRF-CEM leukemia = tested on: CCRF-CEM leukemia
PC-3 prostate = tested on: PC-3 prostate
SK-MEL-28 melanoma = tested on: SK-MEL-28 melanoma
TK-10 renal = tested on: TK-10 renal
M14 melanoma = tested on: M14 melanoma
RPMI-8226 leukemia = tested on: RPMI-8226 leukemia
T-47D breast = tested on: T-47D breast
NCI-H460 lung = tested on: NCI-H460 lung
MDA-MB-435 = tested on: MDA-MB-435
A549 NSCLC = tested on: A549 NSCLC
NCI-H23 lung = tested on: NCI-H23 lung
SF-539 CNS = tested on: SF-539 CNS
HCT-15 colon = tested on: HCT-15 colon
IGROV1 ovarian = tested on: IGROV1 ovarian
CAKI-1 renal = tested on: CAKI-1 renal
UACC-257 melanoma = tested on: UACC-257 melanoma
HOP-92 NSCLC = tested on: HOP-92 NSCLC

Measured: TGI

c1ccc2c(c1)SCCC2NC1=NCCO1 (stereo unspecified)
not listed: UACC-257 melanoma | HOP-92 NSCLC
> 100 µM: all other assays above

O=C(O)c1ccc(C(=O)O)c2c(C(=O)O)ccc(C(=O)O)c12
not listed: HCC-2998 colon | HL-60(TB) leukemia | CCRF-CEM leukemia
> 100 µM: all other assays above
